Four molecules from patent US20230190844A1, “COMPOSITION AND METHOD FOR TREATING CANCER WITH CANNABINOIDS” (CANNABICS PHARMACEUTICALS INC., priority 2020, published 2023) can be followed below.

In series [1] the test system is RKO cells. Description: CellTiter-Glo (CTG) cell viability, RKO. How it is done:
(§1) The colon cancer cell lines RKO, and HCT116 were exposed to various cannabinoid combinations, at 37° C. for 48 h. The viability of the tested cells was examined. Further, synergism was evaluated using the Bliss equation.
(§2) CBDV and CBGA were tested at concentrations of 46.9 μM and 51.2 μM, respectively (shown as X2 in FIGS. 4A-4B). The effect of contacting each cannabinoid on the cells at half the concentration (i.e., 23.4 μM and 25.6 μM for CBDV and CBGA, respectively) was further tested (shown as X1 in FIGS. 4A-4B). Mixtures of CBDV and CBGA each at a X1 concentration were further prepared (“low concentration solutions”). The effect of the low concentration solution on the viability of the cancer cells was tested. The testing of the effect of each solution on the cancer cells was determined by incubating the cells with each cannabinoid solution as well as a standard (control) comprising DMSO only at 37° C. for 48 h and cell viability was measured by CTG viability assay using a Varioskan™ LUX multimode microplate reader.
(§3) FIGS. 7A-7B illustrate the human colon cell lines (HCT116 and RKO) that were incubated with CBGA at a concentration of 35 μM, CBDV at a concentration of 25 μM, Capecitabine at a concentration of 250 μM, and a combination thereof.
(In general: In ATP-based viability assays light output follows the ATP content of the culture.)

Series [2] relates to HCT116 cells. Description: CellTiter-Glo (CTG) cell viability, HCT-116. How it is done: as §1, §2, §3
The subject of series [3] is MCF-7 breast cancer cells. Description: CellTiter-Glo (CTG) cell viability, MCF-7. The class given is cell-based. The following applies: CBDV 23.5 μM, CBGA 20 μM, CBDVA 17.5 μM, THC-d8 17.5 μM; 48 hours; FIGS. 3A-3B. The procedure: The breast cancer cell line MCF-7 was exposed to each of CBDV (at a concentration of 23.5 μM) and CBGA (at a concentration of 20 μM) alone, and to a combination thereof at 37° C. for 48 hours. The viability of the tested cells was examined. The following Table 8 illustrates the obtained results (shown also graphically in FIGS. 3A-3B).

The test system of series [4] is HT-29 colon cancer cells. Description: CellTiter-Glo (CTG) cell viability, HT-29. The class given is cell-based, human. The following applies: CBDV 23.5 μM, CBGA 25.6 μM, THC-d8 17.5 μM; 48 hours; FIGS. 1A-1B. The procedure: The colon cancer cell line HT-29 was exposed to each of CBDV (at a concentration of 23.5 μM) and CBGA (at a concentration of 25.6 μM) alone, and a combination thereof and to each of CBGA (at a concentration of 25.6 μM) and THC-d8 (at a concentration of 17.5 μM) alone, and a combination thereof at 37° C. for 48 hours. The viability of the tested cells was examined. The following Tables 4 and 5 illustrate the obtained results (shown also graphically at FIGS. 1A and 1B).

For series [5], the system named is CT26 cells. In words: Cell viability at varying CBGA:CBDV ratios, CT26. The following applies: Mus musculus, CT26, read-out: % Cells Viability.
Experimental: (§4) Human colon cell lines (SC-CO1, RKO, and HCT116) and a murine cell line (CT26) were incubated with varying molar ratios between CBGA and CBDV of 1:3.5 to 8.5:1. Cells' viability and corresponding synergy rankings were determined.
Series [6] concerns SK-CO1 cells. Description: Cell viability at varying CBGA:CBDV ratios, SK-CO1. The note with it: Homo sapiens, SK-CO-1, read-out: % Cells Viability.
Experimental: as §4
Series [7] concerns A549 lung cancer cells. Description: CellTiter-Glo (CTG) cell viability, A549. The class given is cell-based. The note with it: CBDV 23.5 μM, CBGA 25.6 μM, CBDVA 25.6 μM, THC-d8 17.5 μM; 48 hours; FIGS. 2A-2B. The procedure: The lung cancer cell line A549 was exposed to each of CBDV (at a concentration of 23.5 μM) and CBGA (at a concentration of 25.6 μM) alone, and a combination thereof at 37° C. for 48 hours. The viability of the tested cells was examined. The following Table 6 illustrates the obtained results (shown also graphically in FIGS. 2A-2B).

Series [8] concerns cells of human colon cancer biopsy. In words: Cell viability of human colon cancer biopsies. The class given is cell-based. The note with it: CBDV 23.5 μM, CBG 20 μM, alone or combined. How it is done: The anti-tumor effect of combinations of cannabinoids CBCA, CBDV, CBDVA, THCV and CBGA on human colon cancer biopsies was tested. […] The obtained cell viability inhibition produced synergistic effects.
Table 18 illustrates (shown also graphically at FIG. 5A) the synergistic anti-tumor effect of a combination of the cannabinoids THCV (at a concentration of 24 μM) and CBCA (at a concentration of 14.5 μM) on colon cancer biopsies.
FIG. 6 illustrates graphically the combination of CBGA and CBDV on colon cancer biopsies taken from a patient. The concentration of each component was: CBGA (X2-51.2 μM), CBGA (X1-25.6 μM), CBDV (X2-47 μM), […].

The mark [9] stands for this setting: Homo sapiens, RKO, read-out: % Cells Viability.
The mark [10] stands for this setting: Homo sapiens, HCT-116, read-out: % Cells Viability.

As to `CCCCCOC(=O)Nc1nc(=O)n([C@@H]2O[C@H](C)[C@@H](O)[C@H]2O)cc1F` [Capecitabine, reference compound], the “anti-cancer / toxicity effect on the cells in words” value in series [1] (FIG. 7B, CBGA 35 μM, CBDV 25 μM, Capecitabine 250 μM) was “no toxicity effect”; in series [2] (FIG. 7A, CBGA 35 μM, CBDV 25 μM, Capecitabine 250 μM), “no toxicity effect”.
Broadly, the viability is a read-out of living cells in per cent, often relative to untreated cells. On to `CCCCCc1cc(O)c(C/C=C(\C)CCC=C(C)C)c(O)c1C(=O)O` [CBGA, 3-[(2E)-3,7-dimethylocta-2,6-dienyl]-2,4-dihydroxy-6-pentylbenzoic acid], for which, in series [1] (Homo sapiens, RKO, 48 h), the viability at 25.6 µM stood at 103% and the viability at 51.2 µM was 53%. Further, in series [1] (setting [9]), the viability at 10 µM was 119%, the viability at 15 µM was found to be 119%, the viability at 25 µM was determined as 94% and the viability at 30 µM came out at 75%. In series [1] (setting [9]), the viability at 35 µM stood at 59% and the viability at 42.5 µM came to 41%. For the same molecule, the “growth inhibition / anti-cancer effect in words” value in series [3] was “slight growth inhibition effect”. Also, in series [2] (Homo sapiens, HCT-116, 48 h), the viability at 25.6 µM came to 105% and the viability at 51.2 µM stood at 84%. Moreover, in series [2] (setting [10]), the viability at 10 µM amounted to 115%, the viability at 15 µM worked out at 112%, the viability at 25 µM was found to be 104% and the viability at 30 µM came out at 97%. Besides, in series [2] (setting [10]), the viability at 35 µM amounted to 90% and the viability at 42.5 µM was determined as 72%. For the same molecule, the “growth inhibition / anti-cancer effect in words” value in series [4] is given as “slight growth inhibition effect”. For the same molecule, in series [5], the viability at 10 µM is 102%, the viability at 15 µM worked out at 102%, the viability at 25 µM stood at 46% and the viability at 30 µM was 22%. For the same molecule, in series [5], the viability at 35 µM was found to be 21% and the viability at 42.5 µM stood at 11%. Besides, in series [6], the viability at 10 µM was determined as 108%, the viability at 15 µM is 110%, the viability at 25 µM is 101% and the viability at 30 µM came out at 91%. Also, in series [6], the viability at 35 µM was found to be 76% and the viability at 42.5 µM is 52%. Moreover, in series [7], the “growth inhibition / anti-cancer effect in words” value is “slight growth inhibition effect”.
`CCCCCc1cc(O)c(C/C=C(\C)CCC=C(C)C)c(O)c1` [CBG]: in series [8], the Viability came out at 84.
Take `C=C(C)[C@H]1CCC(C)=C[C@@H]1c1c(O)cc(CCC)cc1O` [CBDV, 2-((1S,6S)-3-methyl-6-(prop-1-en-2-yl)cyclohex-2-enyl)-5-propylbenzene-1,3-diol]: in series [1] (Homo sapiens, RKO, 48 h), the viability at 23.4 µM came out at 92% and the viability at 46.9 µM turned out to be 38%. For the same molecule, in series [1] (setting [9]), the viability at 5 µM amounted to 112%, the viability at 10 µM was determined as 108%, the viability at 15 µM stood at 88% and the viability at 25 µM was 62%. Moreover, in series [1] (setting [9]), the viability at 30 µM was 53% and the viability at 35 µM was found to be 48%. The “growth inhibition / anti-cancer effect in words” value in series [3] was “slight growth inhibition effect”. In series [2] (Homo sapiens, HCT-116, 48 h), the viability at 23.4 µM is 94% and the viability at 46.9 µM was found to be 64%. For the same molecule, in series [2] (setting [10]), the viability at 5 µM was 113%, the viability at 10 µM is 109%, the viability at 15 µM was 101% and the viability at 25 µM was determined as 84%. Moreover, in series [2] (setting [10]), the viability at 30 µM was found to be 71% and the viability at 35 µM stood at 64%. In series [4], the “growth inhibition / anti-cancer effect in words” value is recorded as “slight growth inhibition effect”. Further, in series [5], the viability at 5 µM is 108%, the viability at 10 µM amounted to 109%, the viability at 15 µM is 113% and the viability at 25 µM is 108%. In addition, in series [5], the viability at 30 µM came to 99% and the viability at 35 µM is 90%. Also, in series [6], the viability at 5 µM is 104%, the viability at 10 µM was 103%, the viability at 15 µM was 99% and the viability at 25 µM came out at 99%. Also, in series [6], the viability at 30 µM was 97% and the viability at 35 µM was 96%. Further, the “growth inhibition / anti-cancer effect in words” value in series [7] was “slight growth inhibition effect”.
